Common to all, as to assay type: cell-based, Acinetobacter baumannii
The test system of experiment [1] is A. baumannii biofilm. The experiment in a line: HTS total biofilm formation assay (crystal violet staining). Conditions: Acinetobacter baumannii, 10 point dose-response 0.1-50 μM. From the text: (§1) Each HTS tier consisted of: (i) primary screening, (ii) confirmation screening and (iii) dose-response curve screening. Each tier of HTS included three distinct biological process assays. The first assay was an optical density measurement of bacteria growth in the presence of each compound reported as a total bacteria growth. In the second assay, resazurin solution was used as an indicator of metabolic activity to measure the live bacteria in the biofilms, reported as live biofilm. The final assay was crystal violet staining, which indicated the amount of biofilm formation and the effect of each compound on this process, reported as total biofilm formation.
(§2) Briefly, stationary phase bacteria grown in L-broth were diluted 1:200 into fresh L-broth and 50 μM of each test compound. After 20-24 hours, the optical density (OD560) of each suspension was measured using Zeiss Plate::Vision with a 560 BP filter (560 nm, 2.5% light intensity, 1 mm focus to bottom of plate, and exposure time of 100 ms). To measure bacterial viability in the biofilm, 50 μl of a 5 mg/ml resazurin solution in L-broth was added to each well after washing 3 times with 50 μl of PBS. The plates were then incubated at 37° C. for 30 or 180 min for A. baumannii and P. aeruginosa biofilms, respectively. Fluorescence was measured using Zeiss Plate::Vision at excitation and emission wavelengths of 535 and 580 nm, 100 ms exposure time, 2.5% intensity and a 2 mm focus to the bottom of the biofilms. To assess biofilm formation, plates were washed 3 times with PBS and then 50 μl of 0.01% of crystal violet was added to each well to assess bacterial biofilm formation as described in a similar borosilicate tube assay by O'Toole and Kolter. After incubation at room temperature for 30 min and removal of the crystal violet solution by washing with PBS, 95% ethanol was added to solubilize the crystal violet followed by incubation for 20 min at room temperature. Finally, the optical density of each plate was determined using measured by Zeiss Plate::Vision using the same settings used to measure total bacterial growth. These 3 steps were used in each of the three tiers for the HTS process: (i) single point primary screening at 10 μM, (ii) triplicate confirmation of hits from (i) at 10 μM and (iii) determination of AC50 values in 10 point dose-response at a concentration range of 0.1-50 μM) in hits from (ii). The AC50 represents the concentration of compound that inhibits 50% of bacterial growth, bacterial viability, or biofilm formation. Genedata Screener® Assay Analyzer Software (Ver. 9.0.0 Standard) was used to analyze data from all assay tiers. Compounds with an AC50 of less than 20 μM in one of the biological assays from the dose response screen were subject to additional investigation.

In experiment [2] the test system is A. baumannii established biofilm. The experiment in a line: CLSM, effect of compound on the pre-existing biofilm. The following applies: 24 hr; for killing of established A. baumannii biofilm (CLSM, in words): 300 μM; for Effect of compound on the pre-existing biofilm: Killing: Y / —. The procedure:
(§3) Broad spectrum agents (effective against all three bacterial species) and single agent compounds identified as HTS hits were investigated with CLSM confirmation of inhibition of biofilm formation (culture of bacteria with compounds) or killing of bacteria residing within an established biofilm (compound addition after culturing biofilm). To evaluate inhibition of P. aeruginosa biofilms, bacteria were sub-cultured into 10% L-broth and grown at 37° C. until the OD600 reached 0.25. The bacteria were further diluted 1:100 into a modified 0.5×M63 minimum media (50 mM KH2PO4, 7.5 mM (NH4)2SO4, 9 μM FeSO4, 0.5% casamino acids, 0.2% glucose, and 1 mM MgSO4). A. baumannii biofilms were also grown in 10% L-broth until the OD600 reached 0.05 but diluted 1:10 into 5% L-broth media. S. epidermidis biofilm cultures were grown. Briefly, the bacteria were grown in TSB until the OD600 reached 0.75, and a 1:100 dilution of the bacteria was sub-cultured into phosphate buffered saline (PBS). All of the biofilm bacterial cultures were grown in 96-well plate chambers (MatTek Corp., Ashland, Mass.) in the presence of 10 μM of each compound or DMSO as a control and incubated for 18 hrs at 37° C. To investigate the ability of compounds to kill bacteria within pre-existing biofilms, biofilms were grown under the same conditions, but without test compound. These biofilms were washed once with PBS and incubated an additional 24 hr at 37° C. in PBS containing 300 μM of each compound. All biofilm cultures were then washed twice with 100 μL of PBS and stained using the LIVE/DEAD® BacLight™ Bacterial Viability Kit (Invitrogen). Finally, biofilm images were obtained using a Zeiss LSM510 META Confocal Microscope (Carl Zeiss, Inc., Germany). A 488 nm laser was used in conjunction with a Plan-Apochromat 100×/1.4 Oil DIC objective. Z-stacks were 8 bit and measured 127.3 μm×127.3 μm×16.0 μm in size. The filters used were 505-530 and 620-680 IR, as the excitation and emission wavelengths for red fluorescence are 490 nm and 635 nm, respectively, and 480 nm and 500 nm for green fluorescence. Three dimensional images were generated using the “Projection” ability on LSM Image Browser software (v.1.4.0.121) or Zeiss LSM image browser software version 3.5 (Carl Zeiss, Inc., Germany), and Live/Dead calculations were conducted based upon these images using MacBiophotonics ImageJ following the guidelines in the cell counting guide by C. Labno {Rasband, 1997-2011 #25; Labno, #2} at the University of Chicago Integrated Light Microscopy Core. The thickness of the biofilm was calculated using Comstat software. A hit was defined as a >50% dead to live ratio.
(§4) The CLSM experiment was performed in one or two or all bacteria used in this study depending on its activity. For the validation of HTS hits, 10 μM of compound was added to each bacterial suspension and the resulting biofilm stained with LIVE/DEAD® BacLight™ Bacterial Viability Kit. The images were analyzed to determine the live and dead ratios of biofilm bacteria, the thickness of biofilms, and structural attributes of biofilms.

The test system of experiment [3] is A. baumannii biofilm. The experiment in a line: HTS live biofilm assay (resazurin metabolic activity). Conditions: Acinetobacter baumannii, 10 point dose-response 0.1-50 μM.
From the text: as §1, §2

For a further experiment, the system named is A. baumannii. The experiment in a line: HTS total bacterial growth assay (optical density OD560). The following applies: 10 point dose-response 0.1-50 μM, NS* = no sigmoid curve observed; for AC50: Acinetobacter baumannii, read-out: Total Bacteria Growth AC50.
From the text: as §1, §2

Experiment [4] relates to A. baumannii biofilm. Briefly: CLSM, co-culture of bacteria with compound (inhibition of biofilm formation). The following applies: for killing of residential bacteria, co-culture (CLSM, in words): 10 μM; for Co-culture of bacteria with compound: Killing: CLSM, 10 μM compound, 18 hrs, Y / —. The procedure:
as §3, §4

Entries after “also recorded” stand apart in the source; their conditions may differ. Bounds are passed on as bounds.

As a reminder, the AC50 is the concentration giving half of the maximal activity seen.

For the compound `Oc1ccc2c(c1O)O[C@@]13NC(=S)N[C@@H](c4ccccc4)[C@H]1CCC[C@H]3[C@H]2c1ccccc1` (relative stereo) [Compound 24, (4R,4aR,7aS,8S,13aR)-rel-3,4,4a,5,6,7,7a,8-octahydro-11,12-dihydroxy-4,8-diphenyl-[1]Benzopyrano[3,2-i]quinazoline-2(1H)-thione], the AC50 with A. baumannii biofilm [1] is 3.75 µM; in the experiment with A. baumannii biofilm [3], 1.13 µM; with A. baumannii, greater than 200 µM. Moreover, the “killing of established A. baumannii biofilm (CLSM, in words)” value in experiment [2] is “demonstrated killing of established biofilm culture; also recorded: effective against biofilm resident A. baumannii”. Moreover, the “Effect of compound on the pre-existing biofilm: Killing” value (“Effect of compound … Killing” below) in experiment [2] (CLSM, 300 μM compound) is on record as “Y (A hit was defined as a >50% dead to live ratio)”.

For the compound `O/N=C1/C=Cc2[nH]c(-c3ccccc3)cc2/C1=N/O` [Compound 18, N-(4-nitroso-2-phenyl-1H-indol-5-yl)hydroxylamine], the AC50 with A. baumannii biofilm [1] came out at 14.6 µM; in the experiment with A. baumannii biofilm [3] it was 4.53 µM; in the experiment with A. baumannii, 17.7 µM. In addition, the “killing of established A. baumannii biofilm (CLSM, in words)” value in experiment [2] is reported as “demonstrated killing of established biofilm culture; also recorded: effective against biofilm resident A. baumannii”. Further, the “Effect of compound … Killing” value in experiment [2] (CLSM, 300 μM compound) was “Y (A hit was defined as a >50% dead to live ratio)”. Moreover, the “killing of residential bacteria, co-culture (CLSM, in words)” value (from here on “killing of residential bacteria”) with A. baumannii biofilm [4] was “effective in killing the bacterium”. For the same compound, in the experiment on A. baumannii biofilm [4], the “Co-culture of bacteria with compound: Killing” value is given as “Y (A hit was defined as a >50% dead to live ratio)”.

Regarding `Nc1nonc1-c1nc2ccccc2n1CC(=O)N/N=C/c1cc(Br)cc(Br)c1O` [Compound 21, 2-[2-(4-amino-1,2,5-oxadiazol-3-yl)-1H-benzimidazol-1-yl]-N′-[(E)-(3,5-dibromo-2-hydroxyphenyl)methylidene]acetohydrazide], the AC50 in the experiment on A. baumannii biofilm [1] worked out at 14.6 µM; in the experiment with A. baumannii biofilm [3], 9.86 µM. The “Total Bacteria Growth AC50” value with A. baumannii is “NS*”.

In the case of `O=C(N/N=C/c1cc(Br)c(O)cc1O)c1cc2c(ccc3ccccc32)o1` [Compound 23, N′-[(E)-(5-Bromo-2,4-dihydroxyphenyl)methylene]naphtho[2,1-b]furan-2-carbohydrazide], the half-maximal activity concentration (AC50) in the experiment on A. baumannii biofilm [1] is 17.5 µM; in the experiment with A. baumannii biofilm [3], 8.97 µM; in the experiment with A. baumannii, greater than 200 µM.

Regarding `CCCCC(C(=O)N/N=C/c1cc(Br)ccc1O)C(=O)N/N=C/c1cc(Br)ccc1O` [Compound 25, N′1,N′3-Bis [(E)-(5-bromo-2-hydroxyphenyl)methylene]-2-butylmalonohydrazide], the values for the AC50 in the experiment on A. baumannii biofilm [1], in the experiment on A. baumannii biofilm [3] and with A. baumannii were 5.11 µM, 1.26 µM and greater than 200 µM, respectively.

Take `Cc1n[nH]c(O)c1C(c1cccc(OCc2ccc(Cl)c(Cl)c2)c1)c1c(C)n[nH]c1O` [Compound 26, 4-[{3-[(3,4-dichlorobenzyl)oxy]phenyl}(5-hydroxy-3-methyl-1H-pyrazol-4-yl)methyl]-3-methyl-1H-pyrazol-5-ol]: the AC50 in the experiment with A. baumannii biofilm [1] amounted to 7.6 µM; with A. baumannii biofilm [3] it was 8.07 µM. Besides, the “killing of established A. baumannii biofilm (CLSM, in words)” value in experiment [2] is “demonstrated killing of established biofilm culture; also recorded: effective against biofilm resident A. baumannii”. Also, in experiment [2] (CLSM, 300 μM compound), the “Effect of compound … Killing” value is recorded as “Y (A hit was defined as a >50% dead to live ratio)”. Besides, in the experiment on A. baumannii, the “Total Bacteria Growth AC50” value is “NS*”.

As to `Oc1c(Cl)cc(Cl)c(Cl)c1-c1nc2ccccc2[nH]1` [Compound 29, 2-(1H-benzoimidazol-2-YL)-3,4,6 Trichlrophenol], the AC50 was 8.37 µM with A. baumannii biofilm [1] and greater than 200 µM with A. baumannii biofilm [3]. Moreover, the “Total Bacteria Growth AC50” value with A. baumannii was “NS*”.

For the compound `CCCCOC(=O)C(=O)CC(=O)/C=C/c1ccccc1` [Compound 30, Butyl (E)-2,4-dioxo-6-phenylhex-5-enoate], the AC50 in the experiment on A. baumannii biofilm [1] is 8.54 µM; in the experiment with A. baumannii biofilm [3], 2.35 µM. Further, the “Total Bacteria Growth AC50” value with A. baumannii was “NS*”.

Consider `Oc1c(I)cc(I)cc1/C=N/c1ccc2[nH]c(-c3ccccc3)nc2c1` [Compound 31], for which the AC50 with A. baumannii biofilm [1] was 23.5 µM. For the same compound, the “killing of established A. baumannii biofilm (CLSM, in words)” value in experiment [2] was “demonstrated killing of established biofilm culture; also recorded: demonstrated ability in killing; also recorded: effective against biofilm resident A. baumannii”. For the same compound, in experiment [2] (CLSM, 300 μM compound), the “Effect of compound on the pre-existing biofilm: Dispersion” value is “did demonstrate dispersion activity” and the “Effect of compound … Killing” value was “Y (A hit was defined as a >50% dead to live ratio)”. The same compound came in with an AC50 in the experiment with A. baumannii biofilm [3] of 17.4 µM. Also, in the experiment on A. baumannii biofilm [4], the “killing of residential bacteria” value is given as “effective in killing the bacterium” and the “Co-culture of bacteria with compound: Killing” value is listed as “Y (A hit was defined as a >50% dead to live ratio)”. The AC50 with A. baumannii was greater than 200 µM.

For `O=C(N/N=C/c1ccc(O)cc1O)c1cc(-c2ccccc2)nc2ccccc12` [Compound 33, N′-(2,4-dihydroxybenzylidene)-2-phenylquinoline-4-carbohydrazide], the AC50 with A. baumannii biofilm [1] was 17.2 µM; in the experiment on A. baumannii biofilm [3], 7.28 µM; with A. baumannii, greater than 200 µM.

Consider `C=CCSC1=NC(C)(C)CC2(CC(c3ccccc3)c3ccc(O)c(O)c3O2)N1` (stereo not shown) [Compound 34, 3,4,5′,6′-tetrahydro-6′,6′-dimethyl-4-phenyl-2′-(2-propen-1-ylthio)-spiro[2H-1-benzopyran-2,4′(3′H)-pyrimidine]-7,8-diol], for which, in experiment [2], the “killing of established A. baumannii biofilm (CLSM, in words)” value is on record as “effective against biofilm resident A. baumannii”. The “killing of residential bacteria” value in the experiment with A. baumannii biofilm [4] is recorded as “effective in killing the bacterium”.

For “N-2-(4-methoxybenzothiazolyl)-2,3-dihydro-4-Methyl-5-oxo-1H,5HBenzo[ij]quinolizine-6-carboxamide [Compound 28]”, the “killing of established A. baumannii biofilm (CLSM, in words)” value in experiment [2] is “effective against biofilm resident A. baumannii”.

The values are drawn from US10704076B2, “Multi-tiered high through-put screen for compounds effective against bacterial biofilm and compounds effective for inhibiting and eradicating bacterial biofilm” (University of Cincinnati, priority 2013, dated 2020).
